Test results taken from patent publication US9522124B2, “Methods for treating Alzheimer's disease” (Wisconsin Alumni Research Foundation, priority 2011, dated 2016).
pIC50: −log10 of the molar value.

Assays:
Aβ = Aβ levels in brain homogenates (cortex) of APP695/swe mice; format: in vivo, mouse
Protocol: A group of non-transgenic and APP695/swe mice were fed a diet containing 50 mg/kg/day of compound 9. Treatment started at weaning (˜6 weeks of age) and lasted 4 months. At the end of treatment, the animals were sacrificed and the electrophysiological properties of hippocampal brain slices (as induced by theta burst stimulation to the Schaffer collaterals) were studied.
Note that at this age, the animals have not yet developed plaques. As expected from our previous results in cellular models (Ko and Puglielli, 2009), no effect on the Aβ42/Aβtotal ratio was observed (data not shown). In fact compound 9 affects BACE1 levels and, as such, impacts on the generation of all Aβ species.

ATase1 and ATase2 = test: Western blot of ATase1 and ATase2 levels in CHO cells over-expressing transgenic ATase1 or ATase2; format: cell-based, hamster; details: 10 μM, 48 hours
Protocol: FIG. 4. Compound 9 causes degradation of the ATases. (A) H4 cells were treated with the indicated compounds (10 μM) for 48 hours prior to Western blot assessment of BACE1 and ATase1/ATase2 levels in total cell lysates. (B, D and E) Quantification of changes are expressed as percent of control (no treatment) and are the average (n=3)±S.D.*, P<0.05; **, P<0.005; ^#, P<0.0005. (C) ELISA determination of secreted Aβ in the conditioned media of the experiment described in (A). Results are expressed as percent of control (no treatment) and are the average (n=3)±S.D.*, P<0.05; **, P<0.005. (F) CHO cells over-expressing either ATase1 or ATase2 were treated with compound 9 (10 μM) for 48 hours prior to Western blot assessment of ATase1 and ATase2 levels in total cell lysates.
Western blotting was performed on a 4-12% Bis-Tris SDS-PAGE system (NuPAGE; Invitrogen, Carlsbad, Calif., USA) as described previously (Costantini et al., 2006; Jonas et al., 2008; Jonas et al., 2010; Ko and Puglielli, 2007; Ko and Puglielli, 2009; Pehar et al., 2010). […]

ATase2 = molecular target: T1, ATase2 (Homo sapiens, UniProt Q9UHE5); test: AcetylCoA:lysine acetyltransferase assay (fluorescent, affinity purified ATase2-myc); format: biochemical
T1 construct: myc (C); made in house
T1 sequence (Q9UHE5 1-227): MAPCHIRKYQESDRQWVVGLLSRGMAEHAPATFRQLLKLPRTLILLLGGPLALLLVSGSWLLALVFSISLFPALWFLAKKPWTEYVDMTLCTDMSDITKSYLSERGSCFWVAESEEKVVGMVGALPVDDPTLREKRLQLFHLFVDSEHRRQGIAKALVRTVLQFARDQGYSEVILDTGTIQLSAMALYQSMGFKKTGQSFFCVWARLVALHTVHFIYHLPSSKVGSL
Protocol: The acetyl:CoA lysine acetyltransferase activity of ATase1 and ATase2 was assayed as described before (Ko and Puglielli, 2009). Briefly, we adapted a commercially available fluorescent kit (cat. no. 10006515, Cayman Chemicals) as follows: as source of the enzymatic activity, we used affinity purified ATase1-myc and ATase2-myc at the final concentration of 300 ng/μl; as donor of the acetyl group, we used acetyl-CoA at the final concentration of 12.5 μM. […] The acetyltransferase assay was performed as recommended by the manufacturer.
For kinetic analysis of ATase1 and ATase2 inhibition, the assays were performed in the presence of the indicated concentrations of compound 9, 19 and 9.I. The concentration of acetyl-CoA was varied from […]. Values were plotted as a Lineweaver-Burk plot using Graphpad Prism software.
We previously described a fluorescent assay that is able to assess the acetylCoA:lysine acetyltransferase activity of ATase1 and ATase2 in vitro (Ko and Puglielli, 2009). The assay employs affinity purified ATase1 or ATase2 (as enzymes), acetyl-CoA (as donor of the acetyl group) and a recombinant peptide corresponding to the N-terminal tail of the histone protein H3 (as acceptor of the acetyl group). The H3 peptide was preferred to affinity purified BACE1 because it is acetylated in a conformation independent manner ((Ko and Puglielli, 2009) and data not shown) and, therefore, more suitable for large screening approaches. To identify possible ATase1 and ATase2 inhibitors we used the assay to screen a single library of 14,400 small molecules/compounds. The screen identified 186 small molecules/compounds able to inhibit ATase1, ATase2 or both in vitro. […] Each compound was then screened for cytotoxic properties by using multi-plex cytotoxicity assays on a variety of cell lines, including human neuroblastoma and human neuroglioma. […] The above 30 compounds were individually screened on human neuroglioma (H4) cells for their ability to reduce the levels of BACE1 and the generation of Aβ. Two compounds, 9 and 19, produced significant changes and were object of further study.

pIC50 (ATase2): ~6.10
kinetics of inhibition for acetyl-CoA, ATase2 (ATase2; Lineweaver-Burk plot, acetyl-CoA varied): non-competitive inhibition
Structure (SMILES): O=c1c(Cl)c2oc3ccccc3nc-2c2ccccc12 [Compound 9]
reduction in soluble Aβ in the brain homogenates (Aβ; 50 mg/kg/day in diet, 4 months): ~50%
Aβ (Aβ; brain homogenates (cortex), 50 mg/kg/day in diet, 4 months): 178 ± 14 ng/gr
Aβ42/Aβtotal ratio (Aβ; data not shown): no effect
levels of transgenic ATase1 and ATase2 (ATase1 and ATase2): significantly decreases
